Like-named read-outs stand apart in the source and are kept apart here. Non-standard residues stand in square brackets, D forms with d. Residues, ends and D or L forms follow the SMILES beside them. ξ: configuration not given here. *: point of attachment. ξR = N=C(N)NCCCC(N)C(=O)O; βNA = c1ccc2cc(N*)ccc2c1
Key:
[1] = system: S. aureus NorA-, wild type, and NorA+; assay: Photodynamic inactivation (PDI), light-dose dependent phototoxicity; type: cell-based, Staphylococcus aureus; details: 10 μM; for light dose by which strain is eliminated: NorA knockout strain, 635-nm light 100 mWcm^-2; for light dose by which strain is eliminated / logs of killing: 30 min; for logs less killing than wild-type: NorA overexpression strain, 635-nm light; for overall order of efficiency of killing: S. aureus NorA strains; for logs less killing compared to wild-type: NorA overexpressing strain; for logs of killing: wild-type strain
Experimental: (§1) A polylysine-chlorine6 conjugate (pL-ce6), and Rose Bengal (RB) (Sigma-Aldrich) were used as non-phenothiazinium-based PS (FIG. 3). Stock solutions were prepared in water at a concentration of 2-mM and stored for a maximum of 2 weeks at 4° C. in the dark before use. Spectra of stock solutions diluted 140-280 fold in methanol were recorded on an UV-visible spectroscopy system (Waldbronn, Germany). A non-coherent light source with interchangeable fiber bundles (LC122, LumaCare, London, UK) was employed. Thirty-nm band pass filters at ranges 540±15 nm for RB, 635±15 nm for TBO, and DMMB, and 660±15 nm for MB and pLce6 were used. The total power output provided out of the fiber bundle ranged from 300-700 mW. The spot was arranged to give an irradiance of 100 mW/cm^2.
(§2) Bacterial suspensions in PBS (initial concentration 10^8 cells mL^−1) were incubated with PS in the dark at room temperature for 30 minutes at concentrations varying from 1-μM to 300-μM. The cell suspensions were centrifuged at 12000 rpm and then washed twice with sterile PBS. The bacterial suspensions were placed in wells of 96 well micro titer plates (Fisher Scientific) and illuminated with appropriate light at room temperature. Fluences ranged from 0 to 20 Jcm^−2 at a fluence rate of 100 mWcm^−2. During illumination, aliquots of […] were taken to determine the colony-forming units. The contents of the wells were mixed before sampling. The aliquots were serially diluted 10-fold in PBS to give dilutions of 10^−1-10^−6 times the original concentrations and were streaked horizontally on square BHI agar plates as described by Jett et al (1997). This allowed a maximum of seven logs of killing to be measured. Plates were incubated at 37° C. overnight. Two types of control conditions were used: illumination in the absence of photosensitizer and incubation with photosensitizer in the dark.
The three isogenic strains of S. aureus were incubated with 10 μM MB for 30 minutes and then washed free of unbound dye by centrifugation and resuspension in PBS and illuminated with 100 mWcm^−2 660-nm light, and the survival fractions determined as described above.
To establish the recognition of phenothiazinium dyes as a class by NorA, the experiments described in FIG. 4 were repeated with the phenothiazinium compounds TBO and DMMB. Incubation with the photosensitizer was for 30 min followed by a wash. Bacteria were then illuminated with 100 mWcm^−2 635-nm light for both TBO and DMMB. The results shown in FIGS. 7a and 7b show a similar pattern to the susceptibilities as was found for MB. The NorA knockout strain is eliminated by 1 J/cm2 in the case of TBO and by 0.5 J/cm2 in the case of DMMB. […]

[2] = system: P. aeruginosa MexAB-, wild type and MexAB+; type: cell-based, Pseudomonas aeruginosa; details: wild-type strain; 300 μM; after 20 J/cm2
Experimental: A polylysine-chlorine6 conjugate (pL-ce6), and Rose Bengal (RB) (Sigma-Aldrich) were used as non-phenothiazinium-based PS (FIG. 3). Stock solutions were prepared in water at a concentration of 2-mM and stored for a maximum of 2 weeks at 4° C. in the dark before use. Spectra of stock solutions diluted 140-280 fold in methanol were recorded on an UV-visible spectroscopy system (Waldbronn, Germany). A non-coherent light source with interchangeable fiber bundles (LC122, LumaCare, London, UK) was employed. […] The total power output provided out of the fiber bundle ranged from 300-700 mW. The spot was arranged to give an irradiance of 100 mW/cm^2.
Bacterial suspensions in PBS (initial concentration 10^8 cells mL^−1) were incubated with PS in the dark at room temperature for 30 minutes at concentrations varying from 1-μM to 300-μM. The cell suspensions were centrifuged at 12000 rpm and then washed twice with sterile PBS. The bacterial suspensions were placed in wells of 96 well micro titer plates (Fisher Scientific) and illuminated with appropriate light at room temperature. Fluences ranged from 0 to 20 Jcm^−2 at a fluence rate of 100 mWcm^−2. During illumination, aliquots of 10 were taken to determine the colony-forming units. The contents of the wells were mixed before sampling. […] This allowed a maximum of seven logs of killing to be measured. […]

[3] = system: E. coli wild type and TolC-; type: cell-based, Escherichia coli
Experimental: as §1, §2
It was necessary to use higher overall PDI doses to kill the Gram-negative E. coli compared to the Gram-positive S. aureus. A concentration of MB of 50 μM was selected with the same 30-minute incubation and wash by centrifugation, together with light doses up to 20 J/cm^2.

P. aeruginosa PAO1 = type: cell-based, Pseudomonas aeruginosa; details: inhibitor 10 ug/ml with TBO 250 μM, 30 min, wash; 660-nm light 100 mWcm^-2

Cc1cc(N(C)C)cc2[s+]c3cc(N(C)C)cc(C)c3nc12 [DMMB, 1,9-dimethylmethylene blue]
light dose by which strain is eliminated ([1]; wash): ≤ 0.5 J/cm2 | logs less killing than wild-type [1]: roughly 2 logs | overall order of efficiency of killing [1]: DMMB>TBO>MB

CN(C)c1ccc2nc3ccc(=[N+](C)C)cc-3sc2c1 [MB, methylene blue]
killing ([1]; NorA knock-out, 660-nm light, after 1 J/cm^2): complete killing | logs less killing compared to wild-type ([1]; 660-nm light, at 1 J/cm^2): 1 log | logs less killing compared to wild-type ([1]; 660-nm light, at 2 J/cm^2): 2 logs | logs less killing compared to wild-type ([1]; 660-nm light, at 4 J/cm^2): 3 logs | logs of killing ([1]; wash, 660-nm light 100 mWcm^-2, after 1 J/cm^2): 3 logs | logs of killing ([1]; wash, 660-nm light, after 2 J/cm^2): 5 logs | logs of killing ([1]; wash, 660-nm light, after 4 J/cm^2): 7 logs | logs of killing [2]: 5 logs | logs more killing than wild-type ([3]; TolC knock-out mutant, 50 μM, 30 min, wash, at 5 J/cm^2): 2 logs | logs more killing than wild-type ([3]; TolC knock-out mutant, 50 μM, at 10 J/cm^2): three | killing ([3]; TolC knock-out mutant, 50 μM, light doses higher than 10 J/cm^2 (up to 20 J/cm^2)): totally eliminated | killing ([3]; TolC knock-out, 250 μM, after 20 J/cm^2 (data not shown)): totally eliminated | killing ([3]; wild-type, 250 μM, after 20 J/cm^2 (data not shown)): totally eliminated

NC(N)=NCCCC(NC(=O)[C@@H](N)Cc1ccccc1)C(=O)Nc1ccc2ccccc2c1 (stereo partly drawn) [MC207110] (H-Phe-[ξR]-βNA)
logs of killing (P. aeruginosa PAO1): 5 logs

O=C1OC2(c3cc(I)c(O)c(I)c3Oc3c2cc(I)c(O)c3I)c2c(Cl)c(Cl)c(Cl)c(Cl)c21 [RB, Rose Bengal]
differences in killing between the three NorA phenotypes ([1]; wash, 540-nm light 100 mWcm^-2): no differences in killing

Cc1cc2nc3ccc(N(C)C)cc3[s+]c2cc1N.[Cl-] [TBO, Toluidine blue O]
light dose by which strain is eliminated ([1]; wash): ≤ 1 J/cm2 | logs less killing than wild-type [1]: roughly 2 logs | overall order of efficiency of killing [1]: DMMB>TBO>MB

Source: patent US20130115133A1, “INACTIVATION OF MICROORGANISMS WITH MULTIDRUG RESISTANCE INHIBITORS AND PHENOTHIAZINIUMS” (priority 2004, published 2013)
